The record followed here is patent US9927437B2, “Treating neurodegenerative disease” (THE BRIGHAM AND WOMEN'S HOSPITAL, INC., priority 2013, dated 2018).

Entries after “also recorded” stand apart in the source; their conditions may differ.

In data set [1] the test system is inflammatory monocytes. Nature of the data set: Recruitment of inflammatory monocytes to the CNS of EAE NOD mice (flow cytometry). It counts as in vivo, mouse. The conditions noted are these: PDMP as in FIG. 1k, CD11b+Ly6C^high or CD11b+CD45^high. (In general: A flow cytometer gives signals particle by particle.)
Data set [2] deals with C57BL/6 mice. Nature of the data set: EAE in C57BL/6 mice. It counts as in vivo. The conditions noted are these: 10 μg per mouse with MOG35-55 at induction and i.p. every 3 days.
Data set [3] deals with Naïve C57BL/6 and NOD mice. Put plainly: LacCer administration to naïve mice without MOG immunization. It counts as in vivo. To be noted: 10 μg per mouse, absence of MOG immunization. The procedure: FIGS. 12a-i. […] (a) Naïve C57BL/6 (Left panel) and NOD (right panel) mice were treated with LacCer (10 μg per mouse) or vehicle as indicated by red arrows, and EAE clinical scores was recorded. At experimental end point (day 25), astrocytes were isolated and their transcriptional profile was determined by nCounter Nanostring analysis. (b-e) EAE was induced in C57BL/6 (b, c) or NOD mice (d, e) and LacCer or vehicle were administrated as in FIGS. 1g and 1h, respectively. Splenic T-cell recall response to MOG(35-55) (20 μg/ml); proliferation (b, d) and secretion of IL-17A, IFN-γ and IL-10 cytokines (c, e). Data are representative of two independent experiments with ≥8 mice/group (mean and s.e.m.). (f-i) EAE NOD mice were treated with PDMP or vehicle during the chronic phase as in FIG. 1K. Data are representative of three independent experiments with n≥8 mice/group (mean and s.e.m.). (f) qPCR analysis of the expression of tbx21, ifng, rorc, il17A, csf2, il10, foxp3, and tgfb1 mRNA of CD3^+CD4^+ T-cells isolated from the CNS; expression is presented relative to gapdh. (g, h) Recall response to MOG(35-55) (20 μg/ml); proliferation (g) and secretion of IL-17A, IFN-γ and IL-10 cytokines (h). (i) Expression of IFN-γ, IL-17A, Foxp3 and IL-10 by splenic CD3^+CD4^+ T cells (mean and s.e.m.).

The test system of data set [4] is leptomeningeal phagocytes. Nature of the data set: Transcriptional response of leptomeningeal phagocytes to LPS/IFNγ. The conditions noted are these: LacCer 10 μM 1 h, LPS/IFNγ 6 h. It is filed as cell-based, mouse. On the procedure:
FIGS. 15a-b. […] Leptomeningeal phagocytes (a) and choroid plexus cells (b) were pre-treated for 1 h with LacCer (10 μM), or vehicle control (vehicle), followed by activation with LPS/IFNγ for 6 h, or left un-treated (control, Con). mRNA expression was determined by nCounter Nanostring analysis. Representative data of two independent experiments.
The meninges were carefully stripped from the brains of 1- to 3-day-old neonatal mice, and digested with 1% collagenase for 20 min at 37° C., and then dispersed into a single-cell level. Isolated cells, were incubated with anti-mouse CD16/CD32 for 15 min on ice to block the Fc receptors, and stained with APC-conjugated antibody for CD11b (M1/70) for 30 min at 4° C. Cells were washed, incubated with 7-AAD for exclusion of dead cells, and sorted.

Data set [5] concerns C8-D30 astrocytes. Put plainly: In vitro knock-down with shRNA in C8-D30 astrocytes, LPS/IFNγ activation. It counts as cell-based, mouse. The conditions noted are these: lentivirus-delivered shRNA.

On to `CCCCCCCCCC(=O)N[C@H](CN1CCOCC1)[C@H](O)c1ccccc1` [PDMP, D-threo-1-phenyl-2-decanoylamino-3-morpholino-1-propanol], for which, in data set [1], the “frequency of inflammatory monocytes recruited to the CNS” value was “significantly reduced” and the “total numbers of inflammatory monocytes recruited to the CNS” value was “significantly reduced”.

For the compound lactosylceramide [LacCer], the EAE clinical scores entry in data set [2] is recorded as “significant worsening of EAE”. Also, the “induction of EAE-like disease” value in data set [3] is “did not result in the induction of EAE-like disease”. Moreover, the “transcriptional response to activation of leptomeningeal phagocytes” value in data set [4] is “did not affect the transcriptional response; also recorded: does not affect the transcriptional response”.

Regarding “shB4galt6: lentivirus-delivered shRNA against b4galt6 (TRCN0000334278; SEQ ID NO:3) (guide CGATGGACTGAACAATTTATTCTCGAGAATAAATTGTTCAGTCCACG)”, in data set [5], the “up-regulation of h2-Aa, ccl5 and cxcl10 expression” value was “significantly suppressed the up-regulation”.
